Patent US12161694B2, “Methods and compositions for regulating innate lymphoid cell inflammatory responses” (The Broad Institute, Inc., priority 2017, dated 2024)
Where no end group is shown, it is not given here.

Test system: lung-resident ILCs
Test: Flow cytometry of lung ILCs after in vivo treatment (Ki-67, ILC frequency, IL-17RB, surface and intracellular markers)
Parameters: species or system mouse
Excerpt: Mice and in vivo ILC activation. C57Bl/6J mice were purchased from the Jackson Laboratory. Nmur1-LacZ reporter mice with a LacZ cassette knocked into the Nmur1 locus were rederived from Nmur1^tm1.1(KOMP)Vleg sperm obtained from the trans-NIH Knock-Out Mouse Project (KOMP) Repository. Mice were housed under specific-pathogen-free conditions. For experiments, mice were matched for sex and age, and most mice were 6-10 weeks old. Where indicated, mice were anesthetized with Isoflurane and treated intranasally with the indicated stimuli (500 ng IL-25, 500 ng IL-33, or 20 μg Neuromedin U) daily for three consecutive days. The total administered volume was 20 μl for all conditions. Mice were randomly assigned to treatment groups after matching for sex and age. […] Mice were treated intranasally with 10 μg HDM on day 0, 7, 8, and 9, prior to sacrifice on day 10. […]
Flow cytometry. […] Cells were stained on ice with antibodies for surface molecules and the live/dead marker 7AAD and analyzed on a LSRFortessa (BD Biosciences). […]
Lung analysis. […] BALF was centrifuged, and the supernatant was used for analyzing cytokine levels and the cell pellet was resuspended, counted, and used for flow cytometry. […] Where indicated, cells were diluted in 10% Trypan Blue and viable cells counted using a hemocytometer. […]

With “Neuromedin U (FRVDEEFQSPFASQSRGYFLFRPRN-NH2; listed as Homo sapiens) [NMU, neuropeptide ligand of Nmur1 (US Biological)]” the “Galectin-3 (Lgals3) and gp49 (Lilrb4a) expression on ILCs” value was “up-regulated”.
